Experiments:
[1] = tested on: Puccinia triticina (PUCCRT); experiment: Field assessment of Compound I and penthiopyrad on brown rust of wheat (AUDPC % control); type: in vivo; settings: AUDPC-based, 2 field trials
Text: (§1) Treatments consisting of the compound of Formula I and fungicide compound penthiopyrad were applied either using individually or as a two-way mixture of penthiopyrad with the compound of Formula I. The compound of Formula I was applied with Agnique BP-420 (50% w/w at 0.3% v/v) at 75 and 150 g ai/ha and Penthiopyrad (Vertisan) was applied at 125 and 200 g ai/ha. Commercial standards used in the studies were Fluxapyroxad (Imtrex), applied at 100 g ai/ha, and Metconazole+Fluxapyroxad (Librax), applied at 161 g ai/ha.
Fungicidal treatments containing the compound of Formula I and penthiopyrad, either individually or as a two-way mixture, were assessed against brown rust of wheat (PUCCRT) in two separate field trials. In the first trial, fungicidal treatments were applied at B37-39 (protectant, approximately 0% infection at application) growth stages of wheat (TRZAW, MV Vanek variety) under natural infection of brown rust. The treatment was part of an experimental trial designed as a randomized complete block with four replications and a plot of approximately 2×3 m. Fungicidal treatments were applied at a water volume of 200 L/ha, using a backpack plot sprayer with a TEEJET QJ90-2XTT110 015 Nozzle.
In the second trial, fungicidal treatments containing the compound of Formula I and penthiopyrad, either individually or as a two-way mixture, were applied at B33 (curative, approximately 6.6% infection at application) growth stage of wheat (TRZAW, Miradoux variety) under natural infection of brown rust. The treatments were part of an experimental trial designed as a randomized complete block with four replications and a plot of approximately 2×3 m. Fungicidal treatments were applied at a water volume of 200 L/ha, using a backpack plot sprayer with a HARDI MD 110-02 Nozzle.
(§2) Disease severity (percentage of visual diseased foliage on whole plot or leaves) in both field trials was recorded following EPPO PP1/26 guideline prescriptions. Area under the disease progress curve (AUDPC) was calculated for each plot in both trials using the sets of recorded severity data. Relative AUDPC (% control based on AUDPC) was calculated as percent of the nontreated control. Final results for the control of brown rust of wheat by the compound of Formula I, penthiopyrad and mixtures are reported as an average of the relative AUDPC calculated over all […] field trials. Statistical analysis was done according to ANOVA and Tukey's test (p=0.10).

[2] = tested on: Zymoseptoria tritici (SEPTTR); experiment: Field assessment of Compound I and penthiopyrad on leaf blotch of wheat (AUDPC % control); type: in vivo; settings: AUDPC-based, 3 field trials
Text: as §1
Fungicidal treatments containing the compound of Formula I and penthiopyrad, either individually or as a two-way mixture, were assessed against leaf spot of wheat (SEPTTR) in three separate field trials. In the first trial, fungicidal treatments were applied at B33 (3% infection at application on L3) growth stage of winter wheat (TRZAW, Dinosor variety). The treatments were part of an experimental trial designed as a randomized complete block with four replications and a plot of approximately 1×6 m. Treatments were applied at water volume of 200 L/ha, using a backpack plot sprayer (BKPCKENG, FLATFANA nozzle) and pressurized at 200 kPa.
In the second trial, fungicidal treatments were applied twice at B32 (curative, 25% infection at application on L5) and B37-39 (5% infection at application on L3) growth stages of winter wheat (TRZAW, Consort variety). The treatments were part of an experimental trial designed as a randomized complete block with four replications and a plot of approximately 1×2 m. Treatments were applied at water volume of 200 L/ha, using a backpack plot sprayer (BKPCKAIR, Flat fan nozzle) and pressurized at 210 kPa.
In the final trial, fungicidal treatments were applied twice at B32 (protective, 15% infection at application on L6) and B37-39 (12% infection at application on L5) growth stages of winter wheat (TRZAW, Smaragd variety). The treatments were part of an experimental trial designed as a randomized complete block with four replications and a plot of approximately 2×3 m. Treatments were applied at water volume of 200 L/ha, using a backpack plot sprayer (BICYCAIR, FLATFANA nozzle) and pressurized at 220 kPa.
as §2, with “leaf spot” for “brown rust”, “Statistical analysis was done according to ANOVA and Tukey's test (p=0.10).” left out

N#Cc1ccc(Oc2ccc(C(F)(F)C(O)(Cn3ncnc3S)c3ccc(F)cc3F)nc2)cc1 (stereo not shown) [Compound I, 4-((6-(2-(2,4-difluorophenyl)-1,1-difluoro-2-hydroxy-3-(5-mercapto-1H-1,2,4-triazol-1-yl)propyl)pyridin-3-yl)oxy)benzonitrile]
PUCCRT % Control ([1]; rate 75 g ai/ha): 93.5% | PUCCRT % Control ([1]; rate 150 g ai/ha): 94.6% | SEPTTR % Control ([2]; rate 75 g ai/ha): 60.6% | SEPTTR % Control ([2]; rate 150 g ai/ha): 71.1%

From patent US20190297888A1, “FUNGICIDAL COMPOUNDS AND MIXTURES FOR FUNGAL CONTROL IN CEREALS” (Dow AgroSciences LLC, priority 2016, published 2019)
